Here are results for 26 compounds from ChEMBL document CHEMBL4483862, “Open-source discovery of chemical leads for next-generation chemoprotective antimalarials” (2018).

For this assay, the system named is Plasmodium berghei. The assay is described as follows: Luciferase/luciferin-expressing antifolate-resistant parasites were used to infect a culture of HepG2 cells that were pre-incubated with compounds. Infected hepatocytes emit light due to the luciferase reaction. Assay results are presented as the percent inhibition of light emission compared to control. […]. The format is functional. Particulars: sporozoite; for IC90: read-out: LUCIFERASE INFECTION ASSAY - IC90.

The mark [1] stands for this setting: read-out: LUCIFERASE INFECTION ASSAY - IC50.

Turning to `Cc1cc(C(=O)OCC(=O)Nc2cccc(C#N)c2)c(C)n1-c1ccccc1`, the IC90 – broadly, the concentration at which the effect reaches the 90% level – was above 10 µM. Moreover, the IC50 (in general, the point on the concentration scale where inhibition reaches its midpoint) (HEPG2TOX_HILL_SLOPE 2.12, HEPG2TOX_R_SQUARED 0.531, read-out: LUCIFERASE INFECTION ASSAY - IC50) is above 10 µM.
Regarding `CCCn1c(=O)n(C)c(=O)c2c(SCc3cc(=O)oc4cc(CC)ccc34)nc(C(C)(C)C)nc21`, the IC90 was above 10 µM. Further, under setting [1], the IC50 is above 10 µM.
On to `CCCCCC1C/C(=C\c2ccc(C(F)(F)F)cc2)C(=O)/C(=C/c2ccc(C(F)(F)F)cc2)C1` (configuration not stated), for which the IC90 was above 6.87 µM. Further, the IC50 (FFLUC_HILL_SLOPE 3.17, FFLUC_R_SQUARED 0.803, HEPG2TOX_HILL_SLOPE 11.8, HEPG2TOX_R_SQUARED 0.221, PBLUC_HILL_SLOPE 15.7, PBLUC_R_SQUARED 0.195, read-out: LUCIFERASE INFECTION ASSAY - IC50) came out at 6.26 µM.
Regarding `CCOc1ccc(S(=O)(=O)Nc2cc(Sc3ccc(C)cc3)c(O)c3ccccc23)cc1`, the IC90 was above 10 µM. In addition, under “FFLUC_HILL_SLOPE 11.6, FFLUC_R_SQUARED 0.0239, HEPG2TOX_HILL_SLOPE 1.78, HEPG2TOX_R_SQUARED 0.0588, PBLUC_HILL_SLOPE 15.2, PBLUC_R_SQUARED 0.324, read-out: LUCIFERASE INFECTION ASSAY - IC50”, the IC50 was determined as 9.98 µM.
Turning to `O=C(Nc1ccc(N2CCCC2)cn1)c1cc(Cl)ccn1`, the IC90 came out at 2.06 µM. The IC50 (PBLUC_HILL_SLOPE 0.363, 0.720, PBLUC_R_SQUARED 0.388, 0.822, read-out: LUCIFERASE INFECTION ASSAY - IC50) was determined as 0.119 µM.
With `CNc1snc(C)c1C(=O)Nc1ccc(OC)c(Cc2ccccc2)c1`, the IC90 was found to be 1.1 µM. In addition, the IC50 (PBLUC_HILL_SLOPE 16.3, PBLUC_R_SQUARED 0.619, read-out: LUCIFERASE INFECTION ASSAY - IC50) turned out to be 0.961 µM.
On to `CSc1sc(C(=O)N2CCOCC2)c2c1S(=O)(=O)N(C)c1ccccc1-2`, for which the concentration for an effect of 90% (IC90) is above 8.04 µM. In addition, the IC50 under setting [1] was above 8.04 µM.
With `CN(C)C(=O)C1CCCN1c1ccc(C(=O)c2ccccc2)cc1[N+](=O)[O-]` (configuration not stated), the IC90 is above 10 µM. For the same compound, under “HEPG2TOX_HILL_SLOPE 1.22, HEPG2TOX_R_SQUARED 0.897, PBLUC_HILL_SLOPE 2.78, PBLUC_R_SQUARED 0.507, read-out: LUCIFERASE INFECTION ASSAY - IC50”, the IC50 was 6.2 µM.
As for `COc1ccc(/C=C2\CN(Cc3ccccc3)CC3(C=NN(CCO)C3c3ccc(OC)cc3)C2)cc1` (configuration not stated), the IC90 is above 6.63 µM. Also, under setting [1], the IC50 is above 6.63 µM.
As to `COc1ccc(N(CC(=O)Nc2ccc(Cl)cc2Cl)S(=O)(=O)c2cccs2)cc1`, the IC90 is 3.69 µM. Further, the IC50 (HEPG2TOX_HILL_SLOPE 1.66, HEPG2TOX_R_SQUARED 0.962, PBLUC_HILL_SLOPE 19.1, PBLUC_R_SQUARED 0.554, read-out: LUCIFERASE INFECTION ASSAY - IC50) is 3.29 µM.
For the compound `CCOc1cc(/C=C/C(=O)N(c2ccccc2)c2nc(-c3ccc(F)cc3)cs2)cc(Cl)c1OC`, the IC90 is above 10 µM. The IC50 (FFLUC_HILL_SLOPE 10.9, FFLUC_R_SQUARED 0.679, read-out: LUCIFERASE INFECTION ASSAY - IC50) was above 10 µM.
Turning to `CC(=O)C1C2C(=O)N(C(C)(C)C)C(=O)C2C2C=Cc3ccc4cccnc4c3N21` (configuration not stated), the IC90 was 6.42 µM. The IC50 (HEPG2TOX_HILL_SLOPE 8.2, HEPG2TOX_R_SQUARED 0.867, PBLUC_HILL_SLOPE 4.87, PBLUC_R_SQUARED 0.475, read-out: LUCIFERASE INFECTION ASSAY - IC50) was 4.09 µM.
Take `CSc1ccc(N2CC(C(=O)N(C)C(C)c3cccc([N+](=O)[O-])c3)CC2=O)cc1` (configuration not stated): the IC90 is above 10 µM. Also, the IC50 under setting [1] is above 10 µM.
As for `OC1CCN(c2nn3cc(-c4ccccc4)nc3s2)CC1`, the IC90 worked out at 0.954 µM. Also, the IC50 (FFLUC_HILL_SLOPE 1.04, FFLUC_R_SQUARED 0.865, PBLUC_HILL_SLOPE 0.617, PBLUC_R_SQUARED 0.864, read-out: LUCIFERASE INFECTION ASSAY - IC50) came out at 0.0272 µM.
On to `CCS(=O)(=O)N1CCC(C(=O)N(Cc2ccccc2)c2nc(-c3ccc(F)cc3)cs2)CC1`, for which the IC90 is above 10 µM. Besides, under “PBLUC_HILL_SLOPE 11.3, PBLUC_R_SQUARED 0.297, read-out: LUCIFERASE INFECTION ASSAY - IC50”, the IC50 is 8.84 µM.
`Cc1nc(NC(=O)c2cn3ccccc3n2)sc1Cc1ccc2c(c1)OCO2`: the IC90 is 3.5 µM. Moreover, the IC50 (PBLUC_HILL_SLOPE 53.8, PBLUC_R_SQUARED 0.294, read-out: LUCIFERASE INFECTION ASSAY - IC50) was determined as 3.36 µM.
With `CC(C)(C)CC(=O)Nc1ccc2nc(-c3cccs3)nn2c1`, the IC90 is above 10 µM. Moreover, the IC50 (PBLUC_HILL_SLOPE 0.64, PBLUC_R_SQUARED 0.361, read-out: LUCIFERASE INFECTION ASSAY - IC50) was 2.36 µM.
With `COc1cc(/C=C/C(=O)c2ccc(C#N)cc2)cc(Br)c1OCC(=O)N(C)C`, the IC90 is above 10 µM. The IC50 (PBLUC_HILL_SLOPE 20.1, PBLUC_R_SQUARED 0.243, read-out: LUCIFERASE INFECTION ASSAY - IC50) came out at 9.62 µM.
`COc1ccc(NC(=O)Cc2cccs2)cc1S(=O)(=O)Nc1ccc(Cl)cc1`: the IC90 was above 10 µM. Besides, the IC50 (FFLUC_HILL_SLOPE 1.73, FFLUC_R_SQUARED 0.168, HEPG2TOX_HILL_SLOPE 1.26, HEPG2TOX_R_SQUARED 0.964, PBLUC_HILL_SLOPE 12.3, PBLUC_R_SQUARED 0.183, read-out: LUCIFERASE INFECTION ASSAY - IC50) came to 9.75 µM.
Take `O=C(Nc1ncccc1OCc1ccc(Cl)c(Cl)c1)c1cc(Cl)cc(Cl)c1`: the IC90 is above 7.46 µM. The IC50 (FFLUC_HILL_SLOPE 11.8, FFLUC_R_SQUARED 0.202, PBLUC_HILL_SLOPE 16.7, PBLUC_R_SQUARED 0.189, read-out: LUCIFERASE INFECTION ASSAY - IC50) was above 7.46 µM.
On to `CC(C)N(C(=O)COC(=O)C1=NNC(=O)CC1)C(C)C`, for which the IC90 is above 10 µM. For the same compound, the IC50 (FFLUC_HILL_SLOPE 15.7, FFLUC_R_SQUARED 0.158, read-out: LUCIFERASE INFECTION ASSAY - IC50) was above 10 µM.
For `CNc1nc2cnc(Nc3cccc(C(C)C)c3)cc2n1CC1CC1`, the IC90 is 9.92 µM. Also, the half-inhibitory concentration (IC50) (PBLUC_HILL_SLOPE 4.69, PBLUC_R_SQUARED 0.216, read-out: LUCIFERASE INFECTION ASSAY - IC50) was 6.21 µM.
As for `C(=C(c1nc2ccccc2s1)c1nc2ccccc2s1)C1=C(c2ccccc2)Oc2ccccc2O1`, the IC90 is above 10 µM. In addition, the IC50 (FFLUC_HILL_SLOPE 7.98, FFLUC_R_SQUARED 0.561, PBLUC_HILL_SLOPE 1.21, PBLUC_R_SQUARED 0.509, read-out: LUCIFERASE INFECTION ASSAY - IC50) stood at 9.27 µM.
In the case of `O=C1C=CC(=O)N1c1ccccc1OC(F)(F)F`, the IC90 was above 12.8 µM. The IC50 (FFLUC_HILL_SLOPE 21.4, FFLUC_R_SQUARED 0.595, PBLUC_HILL_SLOPE 3.16, PBLUC_R_SQUARED 0.111, read-out: LUCIFERASE INFECTION ASSAY - IC50) is 8.21 µM.
Regarding `COc1cc(C(=O)Nc2cccc(-n3cnnn3)c2)cc(OC)c1OC`, the IC90 was above 9.29 µM. Moreover, for the setting “PBLUC_HILL_SLOPE 1.51, PBLUC_R_SQUARED 0.135, read-out: LUCIFERASE INFECTION ASSAY - IC50”, the IC50 came out at 5.06 µM.
With `COc1ccc(Oc2sccc2[N+](=O)[O-])cc1`, the IC90 is above 13.1 µM. Besides, for the setting “FFLUC_HILL_SLOPE 0.766, FFLUC_R_SQUARED 0.0624, read-out: LUCIFERASE INFECTION ASSAY - IC50”, the IC50 is above 13.1 µM.
